From patent EP2518139A1, “Use of indirubin derivatives for producing pluripotent stem cells” (Universitätsklinikum Jena, priority 2011, dated 2012)
Residues, ends and D or L forms follow the SMILES beside them. *: point of attachment. Cbz = O=C(OCc1ccccc1)*

Tests used:
Smad1/5/8 = test: Immunoblot of p-Smad1/5/8 and pan-Smad1/5/8 in HeLa cells; assay type: cell-based, human
[1] = test system: BMP- and TGFß-relative R-Smads; test: Immunoblot of BMP- and TGFß-relative R-Smads in HeLa cells (TGFß or FCS stimulation); assay type: cell-based, human; settings: 24h, E738 (1µM), Bio (5µM), DM (1µM), Repsox (10µM); for P- and pan-Smads (R-Smads): TGFß (20ng/mL)
[2] = test system: mono-, di- and poly-ubiquitins; test: Immunoblot of ubiquitins in HeLa cells; assay type: cell-based, human; settings: BMP-stimulated HeLa, 24h; MG132 5µM, E738 (1µM)
Protocol: Western blot:: Cell extracts were homogenized in Urea-Lysis buffer (1mM EDTA,0.5% Triton X-100), 5mM NaF, 6M Urea, 1mM Na3VO4, 10µg/mL Pepstatin, 100µM PMSF and 3µg/mL Aprotinin in PBS). Enhanced chemiluminescence (ECL) Western blot analysis was performed. 20-40µg of total protein was resolved on 10% SDS-PAGE gels and immunoblotted with specific antibodies. Primary antibodies were incubated at a 1:1,000 dilution in TBS (pH 7.5) with 0.1% Tween-20 and 5% BSA/nonfat milk with gentle agitation overnight at 4°C. The proper secondary antibodies were incubated in TBS (pH 7.5) with 5% BSA/nonfat milk and 0.1 % Tween-20 at a 1:5,000 dilution for 1 h at room temperature.
Ubiquitin-proteasome degradation system is the major route to protein degradation. To identify if indirubin-induced degradation is conducted by proteasome, we utilized MG132, a general proteasome inhibitor, to characterize the role of proteasome in degradation. We found 5µM MG132 was sufficient to rescue the E738 mediated Smad1/5/8 […] 24h after treatment (Fig. 5E and 5F). […] Thus we interpreted that E738 might be able to promote degradation of polymerased ubiquintins through activating the formation of complexes with certain substrates, speculatively like Smad1/2/3/5/8, leading to accelerate the recycling of mono-ubiquitin, while MG132 blocked the degradation of these complexes and arrest such recycling. […]

p38 = settings: reported by Zhu et al.; cited from earlier work
[3] = BMP2 (100ng/mL), 24h, compound at 5µM

Q: Which “BMP activated Smad1/5/8 and level of pan Smad1/5/8” value (Smad1/5/8; BMP, LiCl (30mM), 24h) does the source give for `[Cl-].[Li+]` [LiCl, reference compound] here?
A: can attenuate BMP activated Smad1/5/8, but not change the level of pan Smad1/5/8

Q: Which results are given for `O=C1Nc2cc(Br)ccc2/C1=C1/Nc2ccccc2/C1=N\O` [BIO, 6-Bromo-indirubin-3'-oxim, reference compound]?
A: level of pan Smad1/5/8 (Smad1/5/8; [3]): slightly decreased pan-Smad1/5/8; phosphorylation (activation) of Smad1/5/8 (Smad1/5/8; [3]): clearly blocked the activation of Smad1/5/8; P- and pan-Smads (R-Smads) [1]: attenuated effects

Q: Which “level of pan Smad1/5/8” value (Smad1/5/8; BMP, MAPK inhibitor alone or in combination with E738) does the source give for `C[S+]([O-])c1ccc(-c2nc(-c3ccncc3)c(-c3ccc(F)cc3)[nH]2)cc1` (stereo not shown) [SB203580, reference compound] here?
A: neither alter the level of pan Smad1/5/8 alone, nor attenuate the E738-mediated degradation in combination with E738

Q: For `CC(C)C[C@@H](C=O)NC(=O)[C@H](CC(C)C)NC(=O)[C@H](CC(C)C)NC(=O)OCc1ccccc1` [MG132, reference compound] (Cbz-Leu-Leu-Leu-aldehyde), which “concentration sufficient to rescue the E738 mediated Smad1/5/8 ubiquitination” value (Smad1/5/8; BMP, 24h after treatment) is on record?
A: 5 µM

Q: And the p-Smad1/5/8 (Smad1/5/8; BMP, MG (5µM) with/without E738)?
A: accumulation of p-Smad1/5/8 was observed

Q: And the “mono-, di- and poly-ubiquitins” value [2]?
A: significantly stabilized mono-, di- and poly-ubiquitins

Q: For `O=C1Nc2ccccc2/C1=C1/Nc2ccccc2/C1=N\O` [E231, Indirubin-3'-oxim], which “p-Smad1/5/8 at C-termini and pan-Smad1/5/8 levels” value (Smad1/5/8; BMP2 (100ng/mL), 24h, compound at 1µM) is on record?
A: slightly decreased

Q: And the “level of pan Smad1/5/8” value (Smad1/5/8; [3])?
A: induced the reduction only partly

Q: And the “phosphorylation (activation) of Smad1/5/8” value (Smad1/5/8; [3])?
A: strongly blocked the phosphorylation

Q: What about the “phosphorylation of p38” value (p38) of the same compound?
A: can stimulate the phosphorylation of p38

Q: Which “signal of Smad1/5/8” value (Smad1/5/8; BMP2, CHX (10µM), 24h) does the source give for `C[C@@H]1C[C@@H]([C@H](O)CC2CC(=O)NC(=O)C2)C(=O)[C@@H](C)C1` [CHX, cyclohexamide, reference compound] here?
A: weaker signal of Smad1/5/8

Q: And the “influence on the E738 induced degradation of Smad1/5/8” value (Smad1/5/8; BMP2, mixture of E738 (1µM) and CHX 10µM, 24h)?
A: no influence on the degradation

Q: Which results are given for `Cc1cccc(-c2[nH]ncc2-c2ccc3ncccc3n2)n1` [Repsox]?
A: activation of both types of R-Smads ([1]; FCS 10%): only partly; P- and pan-Smads (R-Smads) [1]: inhibited TGFß-mediated activation of Smad3, but not Smad1/5/8 or total R-Smads protein
